Experiments:
Assay type in all cases: functional
Aphis fabae = assay: Insecticidal activity against Aphis fabae (black bean aphid) infested soybean tender shoots measured 48 hr post compound dose by modified FAO dip method; parameters: concentration or dose not given beside the values
Mythimna separata = assay: Insecticidal activity against Mythimna separata (Oriental armyworm) fourth-instar larvae reared compound pre-treated corn leaves assessed as insect mortality at 200 mg/L measured 2 days post compound dose
Tetranychus cinnabarinus = assay: Insecticidal activity against Tetranychus cinnabarinus (carmine spider mite) […] assessed as larvicidal activity at 0.006 mg/L after 48 hr

SMILES: CCC(C)[C@H]1O[C@]2(CC[C@@H]1C)C[C@@H]1C[C@@H](C/C=C(\C)[C@@H](O[C@H]3C[C@H](OC)[C@@H](OC(=O)c4ccc(OC)cc4)[C@H](C)O3)[C@@H](C)/C=C/C=C3\CO[C@@H]4/C(=N/OC)C(C)=C[C@@H](C(=O)O1)[C@]34O)O2 (stereo partly drawn)
- mortality (Aphis fabae): 9.3%
- mortality at 200 µg/mL (Mythimna separata): 0%
- mortality at 0.006 µg/mL (Tetranychus cinnabarinus): 6.8%

SMILES: CCC(C)[C@H]1O[C@]2(CC[C@@H]1C)C[C@@H]1C[C@@H](C/C=C(\C)[C@@H](OC(=O)C3C(C=C(Br)Br)C3(C)C)[C@@H](C)/C=C/C=C3\CO[C@@H]4[C@H](O)C(C)=C[C@@H](C(=O)O1)[C@]34O)O2 (stereo partly drawn)
- mortality (Aphis fabae): 72.9%
- mortality at 200 µg/mL (Mythimna separata): 100%
- mortality at 0.006 µg/mL (Tetranychus cinnabarinus): 32.1%

SMILES: CCC(C)[C@H]1O[C@]2(CC[C@@H]1C)C[C@@H]1C[C@@H](C/C=C(\C)[C@@H](OC(=O)CC(C)(C)C)[C@@H](C)/C=C/C=C3\CO[C@@H]4[C@H](O)C(C)=C[C@@H](C(=O)O1)[C@]34O)O2 (stereo partly drawn)
- mortality (Aphis fabae): 76.5%
- mortality at 200 µg/mL (Mythimna separata): 88.9%
- mortality at 0.006 µg/mL (Tetranychus cinnabarinus): 35.5%

SMILES: CCC(C)[C@H]1O[C@]2(CC[C@@H]1C)C[C@@H]1C[C@@H](C/C=C(\C)[C@@H](OC(=O)c3ccc(F)cc3)[C@@H](C)/C=C/C=C3\CO[C@@H]4/C(=N/OC)C(C)=C[C@@H](C(=O)O1)[C@]34O)O2 (stereo partly drawn)
- mortality (Aphis fabae): 0%
- mortality at 200 µg/mL (Mythimna separata): 0%
- mortality at 0.006 µg/mL (Tetranychus cinnabarinus): 19.8%

SMILES: CCC(C)[C@H]1O[C@]2(CC[C@@H]1C)C[C@@H]1C[C@@H](C/C=C(\C)[C@@H](O[C@H]3C[C@H](OC)[C@@H](OC(=O)c4ccc(Cl)cc4)[C@H](C)O3)[C@@H](C)/C=C/C=C3\CO[C@@H]4/C(=N/OC)C(C)=C[C@@H](C(=O)O1)[C@]34O)O2 (stereo partly drawn)
- mortality (Aphis fabae): 8.7%
- mortality at 200 µg/mL (Mythimna separata): 0%
- mortality at 0.006 µg/mL (Tetranychus cinnabarinus): 6.2%

SMILES: CCC(C)[C@H]1O[C@]2(CC[C@@H]1C)C[C@@H]1C[C@@H](C/C=C(\C)[C@@H](O[C@H]3C[C@H](OC)[C@@H](OC(=O)Nc4ccc(Cl)cc4)[C@H](C)O3)[C@@H](C)/C=C/C=C3\CO[C@@H]4[C@H](O)C(C)=C[C@@H](C(=O)O1)[C@]34O)O2 (stereo partly drawn)
- mortality (Aphis fabae): 90.3%
- mortality at 200 µg/mL (Mythimna separata): 77.9%
- mortality at 0.006 µg/mL (Tetranychus cinnabarinus): 29.8%

SMILES: CCC(C)[C@H]1O[C@]2(CC[C@@H]1C)C[C@@H]1C[C@@H](C/C=C(\C)[C@@H](O[C@H]3C[C@H](OC)[C@@H](OC(=O)c4ccccc4)[C@H](C)O3)[C@@H](C)/C=C/C=C3\CO[C@@H]4/C(=N/OC)C(C)=C[C@@H](C(=O)O1)[C@]34O)O2 (stereo partly drawn)
- mortality (Aphis fabae): 5.9%
- mortality at 200 µg/mL (Mythimna separata): 0%
- mortality at 0.006 µg/mL (Tetranychus cinnabarinus): 8.6%

SMILES: CCC(C)[C@H]1O[C@]2(CC[C@@H]1C)C[C@@H]1C[C@@H](C/C=C(\C)[C@@H](OC(=O)c3ccc(F)cc3)[C@@H](C)/C=C/C=C3\CO[C@@H]4[C@H](O)C(C)=C[C@@H](C(=O)O1)[C@]34O)O2 (stereo partly drawn)
- mortality (Aphis fabae): 56.8%
- mortality at 200 µg/mL (Mythimna separata): 83.3%
- mortality at 0.006 µg/mL (Tetranychus cinnabarinus): 47.4%

SMILES: CCC(C)[C@H]1O[C@]2(CC[C@@H]1C)C[C@@H]1C[C@@H](C/C=C(\C)[C@@H](O[C@H]3C[C@H](OC)[C@@H](OC(=O)c4ccccc4OC)[C@H](C)O3)[C@@H](C)/C=C/C=C3\CO[C@@H]4[C@H](O)C(C)=C[C@@H](C(=O)O1)[C@]34O)O2 (stereo partly drawn)
- mortality (Aphis fabae): 100%
- mortality at 200 µg/mL (Mythimna separata): 98.2%
- mortality at 0.006 µg/mL (Tetranychus cinnabarinus): 16.4%

SMILES: C/C=C/C(=O)O[C@H]1[C@H](C)O[C@@H](O[C@@H]2/C(C)=C/C[C@@H]3C[C@@H](C[C@]4(CC[C@H](C)[C@@H](C(C)CC)O4)O3)OC(=O)[C@@H]3C=C(C)[C@@H](O)[C@H]4OC/C(=C\C=C\[C@@H]2C)[C@]43O)C[C@@H]1OC (stereo partly drawn)
- mortality (Aphis fabae): 100%
- mortality at 200 µg/mL (Mythimna separata): 88.9%
- mortality at 0.006 µg/mL (Tetranychus cinnabarinus): 25.1%

SMILES: CCC(C)[C@H]1O[C@]2(CC[C@@H]1C)C[C@@H]1C[C@@H](C/C=C(\C)[C@@H](OC(=O)Cc3ccccc3)[C@@H](C)/C=C/C=C3\CO[C@@H]4[C@H](O)C(C)=C[C@@H](C(=O)O1)[C@]34O)O2 (stereo partly drawn)
- mortality (Aphis fabae): 62.7%
- mortality at 200 µg/mL (Mythimna separata): 89.9%
- mortality at 0.006 µg/mL (Tetranychus cinnabarinus): 44.9%

SMILES: CCC(C)[C@H]1O[C@]2(CC[C@@H]1C)C[C@@H]1C[C@@H](C/C=C(\C)[C@@H](OC(=O)c3ccccc3)[C@@H](C)/C=C/C=C3\CO[C@@H]4/C(=N/OC)C(C)=C[C@@H](C(=O)O1)[C@]34O)O2 (stereo partly drawn)
- mortality (Aphis fabae): 7.2%
- mortality at 200 µg/mL (Mythimna separata): 0%
- mortality at 0.006 µg/mL (Tetranychus cinnabarinus): 9.2%

SMILES: CCC(C)[C@H]1O[C@]2(CC[C@@H]1C)C[C@@H]1C[C@@H](C/C=C(\C)[C@@H](O[C@H]3C[C@H](OC)[C@@H](OC(=O)/C(=N\OC)c4ccccc4)[C@H](C)O3)[C@@H](C)/C=C/C=C3\CO[C@@H]4/C(=N/OC)C(C)=C[C@@H](C(=O)O1)[C@]34O)O2 (stereo partly drawn)
- mortality (Aphis fabae): 15.9%
- mortality at 200 µg/mL (Mythimna separata): 0%
- mortality at 0.006 µg/mL (Tetranychus cinnabarinus): 36.6%

SMILES: CCC(C)[C@H]1O[C@]2(CC[C@@H]1C)C[C@@H]1C[C@@H](C/C=C(\C)[C@@H](OC(=O)c3ccc(OC)cc3)[C@@H](C)/C=C/C=C3\CO[C@@H]4/C(=N/OC)C(C)=C[C@@H](C(=O)O1)[C@]34O)O2 (stereo partly drawn)
- mortality (Aphis fabae): 6.3%
- mortality at 200 µg/mL (Mythimna separata): 0%
- mortality at 0.006 µg/mL (Tetranychus cinnabarinus): 5.9%

SMILES: CCC(C)[C@H]1O[C@]2(CC[C@@H]1C)C[C@@H]1C[C@@H](C/C=C(\C)[C@@H](OC(=O)Nc3ccc(Cl)cc3)[C@@H](C)/C=C/C=C3\CO[C@@H]4[C@H](O)C(C)=C[C@@H](C(=O)O1)[C@]34O)O2 (stereo partly drawn)
- mortality (Aphis fabae): 67.8%
- mortality at 200 µg/mL (Mythimna separata): 88.5%
- mortality at 0.006 µg/mL (Tetranychus cinnabarinus): 30.8%

SMILES: C/C=C\C(=O)O[C@@H]1/C(C)=C/C[C@@H]2C[C@@H](C[C@]3(CC[C@H](C)[C@@H](C(C)CC)O3)O2)OC(=O)[C@@H]2C=C(C)[C@@H](O)[C@H]3OC/C(=C\C=C\[C@@H]1C)[C@]32O (stereo partly drawn)
- mortality (Aphis fabae): 73.5%
- mortality at 200 µg/mL (Mythimna separata): 76.8%
- mortality at 0.006 µg/mL (Tetranychus cinnabarinus): 40.9%

SMILES: CCC(C)[C@H]1O[C@]2(CC[C@@H]1C)C[C@@H]1C[C@@H](C/C=C(\C)[C@@H](OC(=O)/C(=N\OC)c3ccccc3)[C@@H](C)/C=C/C=C3\CO[C@@H]4[C@H](O)C(C)=C[C@@H](C(=O)O1)[C@]34O)O2 (stereo partly drawn)
- mortality (Aphis fabae): 86.3%
- mortality at 200 µg/mL (Mythimna separata): 75.5%
- mortality at 0.006 µg/mL (Tetranychus cinnabarinus): 41.5%

SMILES: CCC(C)[C@H]1O[C@]2(CC[C@@H]1C)C[C@@H]1C[C@@H](C/C=C(\C)[C@@H](OC(=O)/C(=N\OC)c3ccccc3)[C@@H](C)/C=C/C=C3\CO[C@@H]4/C(=N/OC)C(C)=C[C@@H](C(=O)O1)[C@]34O)O2 (stereo partly drawn)
- mortality (Aphis fabae): 6.5%
- mortality at 200 µg/mL (Mythimna separata): 0%
- mortality at 0.006 µg/mL (Tetranychus cinnabarinus): 49%

SMILES: CCC(C)[C@H]1O[C@]2(CC[C@@H]1C)C[C@@H]1C[C@@H](C/C=C(\C)[C@@H](OC(=O)c3ccc(Cl)cc3)[C@@H](C)/C=C/C=C3\CO[C@@H]4/C(=N/OC)C(C)=C[C@@H](C(=O)O1)[C@]34O)O2 (stereo partly drawn)
- mortality (Aphis fabae): 0%
- mortality at 200 µg/mL (Mythimna separata): 0%
- mortality at 0.006 µg/mL (Tetranychus cinnabarinus): 10.2%

SMILES: CCC(C)[C@H]1O[C@]2(CC[C@@H]1C)C[C@@H]1C[C@@H](C/C=C(\C)[C@@H](OC(=O)c3ccccc3)[C@@H](C)/C=C/C=C3\CO[C@@H]4[C@H](O)C(C)=C[C@@H](C(=O)O1)[C@]34O)O2 (stereo partly drawn)
- mortality (Aphis fabae): 76.5%
- mortality at 200 µg/mL (Mythimna separata): 88.6%
- mortality at 0.006 µg/mL (Tetranychus cinnabarinus): 31.1%

SMILES: CCC(C)[C@H]1O[C@]2(CC[C@@H]1C)C[C@@H]1C[C@@H](C/C=C(\C)[C@@H](O[C@H]3C[C@H](OC)[C@@H](OC(=O)c4ccc(C)cc4)[C@H](C)O3)[C@@H](C)/C=C/C=C3\CO[C@@H]4[C@H](O)C(C)=C[C@@H](C(=O)O1)[C@]34O)O2 (stereo partly drawn)
- mortality (Aphis fabae): 92.5%
- mortality at 200 µg/mL (Mythimna separata): 89.7%
- mortality at 0.006 µg/mL (Tetranychus cinnabarinus): 4.5%

SMILES: CCC(C)[C@H]1O[C@]2(CC[C@@H]1C)C[C@@H]1C[C@@H](C/C=C(\C)[C@@H](O[C@H]3C[C@H](OC)[C@@H](OC(=O)Nc4ccccc4)[C@H](C)O3)[C@@H](C)/C=C/C=C3\CO[C@@H]4[C@H](O)C(C)=C[C@@H](C(=O)O1)[C@]34O)O2 (stereo partly drawn)
- mortality (Aphis fabae): 97.6%
- mortality at 200 µg/mL (Mythimna separata): 100%
- mortality at 0.006 µg/mL (Tetranychus cinnabarinus): 45.2%

SMILES: CCC(C)[C@H]1O[C@]2(CC[C@@H]1C)C[C@@H]1C[C@@H](C/C=C(\C)[C@@H](OC(=O)c3ccc(C)cc3)[C@@H](C)/C=C/C=C3\CO[C@@H]4[C@H](O)C(C)=C[C@@H](C(=O)O1)[C@]34O)O2 (stereo partly drawn)
- mortality (Aphis fabae): 56.4%
- mortality at 200 µg/mL (Mythimna separata): 87.6%
- mortality at 0.006 µg/mL (Tetranychus cinnabarinus): 27.1%

SMILES: CCC(C)[C@H]1O[C@]2(CC[C@@H]1C)C[C@@H]1C[C@@H](C/C=C(\C)[C@@H](O[C@H]3C[C@H](OC)[C@@H](OC(=O)C4C(C=C(Cl)Cl)C4(C)C)[C@H](C)O3)[C@@H](C)/C=C/C=C3\CO[C@@H]4[C@H](O)C(C)=C[C@@H](C(=O)O1)[C@]34O)O2 (stereo partly drawn)
- mortality (Aphis fabae): 92.3%
- mortality at 200 µg/mL (Mythimna separata): 87.2%
- mortality at 0.006 µg/mL (Tetranychus cinnabarinus): 11.8%

SMILES: CCC(C)[C@H]1O[C@]2(CC[C@@H]1C)C[C@@H]1C[C@@H](C/C=C(\C)[C@@H](O[C@H]3C[C@H](OC)[C@@H](OC(=O)C4C(C=C(Br)Br)C4(C)C)[C@H](C)O3)[C@@H](C)/C=C/C=C3\CO[C@@H]4[C@H](O)C(C)=C[C@@H](C(=O)O1)[C@]34O)O2 (stereo partly drawn)
- mortality (Aphis fabae): 100%
- mortality at 200 µg/mL (Mythimna separata): 83.3%
- mortality at 0.006 µg/mL (Tetranychus cinnabarinus): 13.4%

SMILES: CCC(C)[C@H]1O[C@]2(CC[C@@H]1C)C[C@@H]1C[C@@H](C/C=C(\C)[C@@H](O[C@H]3C[C@H](OC)[C@@H](OC(=O)c4ccc(OC)cc4)[C@H](C)O3)[C@@H](C)/C=C/C=C3\CO[C@@H]4[C@H](O)C(C)=C[C@@H](C(=O)O1)[C@]34O)O2 (stereo partly drawn)
- mortality (Aphis fabae): 92.3%
- mortality at 200 µg/mL (Mythimna separata): 100%
- mortality at 0.006 µg/mL (Tetranychus cinnabarinus): 9.7%
